Data published in US7875607B2, “7,8-bicycloakyl-chroman derivatives” (Ampere Life Sciences, Inc., priority 2004, dated 2011).

How the values were obtained:
[1] = system: MPTP treated C57/BL6 mice; assay: MPTP animal model, pole test; assay type: in vivo, mouse; details: for effect on the functional deficit produced by MPTP: 30 mg/kg/day, each of days 1-3
Description: MPTP/MPP^+-induced neurodegeneration of dopaminergic neurons is a well characterized model which is therefore widely used to understand the pathogenesis of Parkinson's disease. The compounds were tested against MPTP/MPP^+ induced neuronal death in vitro and in vivo as shown in the following examples. In vitro evaluation of protection against mitochondrial dysfunction is carried out using substantia nigra-derived dopaminergic progenitor cell line (as described in Son J H, et al J W. (1999) J Neurosci, 19:10-20), exposed to 1-methyl-4-phenylpyridinium (MPP^+). In vivo evaluation was carried out using mice that had been treated with 1-methyl-4-phenyl-1,2,3,6-tetrahydropyridine (MPTP), a neurotoxin. […] In a number of species, including humans, […] and rodents, MPTP produces an irreversible and severe parkinsonian syndrome which includes virtually all the clinical features of the disease.
Male C57/BL6 mice (Harlan, Ind.), weight 25-30 g, were used in all studies. MPTP-HCl (Sigma) was administered i.p. according to one of the following protocols. The maximum volume which was given per injection is 200 μL. In all studies, animals were euthanized with carbon dioxide and, brains removed for subsequent determination of dopamine depletion where appropriate.
The pole test evaluates motor co-ordination.
A rough surfaced metal pole (diameter 8 mm, height 50 cm) protruding from a cage filled with animal bedding was used for this test. Animals were placed head upwards at the top of the pole. They were required to turn and descend face downwards and the time taken for this was recorded (latency to reach bedding). Timing was started when the individual animal gripped the top of the pole and was stopped when all four limbs contacted the bedding.
All test compounds were administered ip. The maximum volume which was given per injection was 200 μL. Compounds were dosed up to twice daily, two days prior and 7 days post MPTP treatment.
A baseline reading was taken for each animal one day prior to MPTP treatment. All subsequent readings were normalized to the individual animal's baseline. Values were expressed as a percent baseline.
Data is percent baseline and expressed as mean±std dev: […]
Compound and vehicle given for 9 days in total, 2 days prior to MPTP and 7 days after MPTP treatment. L-DOPA given 1 hour prior to the pole test each day.

[2] = target: T1, human recombinant 5-lipoxygenase (Homo sapiens, UniProt P09917); assay: 5-Lipoxygenase enzyme assay; assay type: biochemical; details: 70 μM arachidonic acid, pH 7.4
T1 construct: purchased Cayman 60402
T1 sequence (P09917 1-674): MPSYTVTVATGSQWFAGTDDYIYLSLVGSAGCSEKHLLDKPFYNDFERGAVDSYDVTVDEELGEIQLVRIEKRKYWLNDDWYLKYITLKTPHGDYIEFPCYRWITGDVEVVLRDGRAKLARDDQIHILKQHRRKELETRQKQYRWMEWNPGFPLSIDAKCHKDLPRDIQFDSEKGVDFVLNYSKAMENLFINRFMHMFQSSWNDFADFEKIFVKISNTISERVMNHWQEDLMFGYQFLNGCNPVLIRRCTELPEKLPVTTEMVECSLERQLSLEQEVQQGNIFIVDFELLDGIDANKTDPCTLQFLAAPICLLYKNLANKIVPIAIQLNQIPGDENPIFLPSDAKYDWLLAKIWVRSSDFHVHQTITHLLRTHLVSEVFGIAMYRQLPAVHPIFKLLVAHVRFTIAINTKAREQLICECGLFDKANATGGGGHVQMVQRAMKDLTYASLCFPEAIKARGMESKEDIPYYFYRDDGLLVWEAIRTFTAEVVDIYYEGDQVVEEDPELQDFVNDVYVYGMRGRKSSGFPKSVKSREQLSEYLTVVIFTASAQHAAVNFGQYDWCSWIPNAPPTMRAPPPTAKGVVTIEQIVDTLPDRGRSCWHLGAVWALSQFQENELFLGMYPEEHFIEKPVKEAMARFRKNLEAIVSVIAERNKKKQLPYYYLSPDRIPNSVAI
Summary of the method: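 Human recombinant 5-LO (0.5 U) with compound in 50 mM Tris-HCl pH 7.4 reacted with 70 μM arachidonic acid for 10 min at room temperature. Hydroperoxide formation was read via FOX xylenol orange complex at 620 nm after 1 h; compounds at 5 concentrations from 10 μM, in triplicate.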

[3] = system: IL-1beta production in mouse microglial cell line; assay: Interleukin-1β microglial cell assay; assay type: cell-based; details: LPS 10 μg/ml and IFN gamma 10 ng/ml, 24 hours, read-out: EC50, inhibition of IL-1beta production
Description: This assay measures the release of IL-1β from a mouse microglial cell line following an inflammatory challenge with LPS and interferon-gamma. The ability of test articles to inhibit microglial cell activation and IL-1β release is determined by co-incubation of the test article with the inflammatory challenge.
Mouse microglial cells were seeded in poly-D-lysine coated 96-well plates at a density of 10,000 cells/well and allowed to attach for 24 hours. Cells were stimulated by addition of LPS (10 μg/ml) and IFN gamma (10 ng/ml) in the presence or absence of test article. The cells were then incubated for 24 hours at 37° C., after which time the media was removed and used for cytokine determination as described below.
Viability of mouse microglial cells after exposure to the test article was determined using a fluorescent viability dye, Cell Tracker Green. Cell Tracker Green was used at a working concentration of 5 μM in 1×HBSS. Cells were washed once with HBSS (200 μl/well) and 100 μl Cell Tracker Green was added to each well. Cells were then incubated at 37° C. for 30 minutes, after which time the Cell Tracker was removed and the cells were washed once with HBSS (200 μl/well). 100 μl fresh HBSS was added to each well and the plate was read on a Fluoroskan plate reader using an excitation wavelength of 485 nm and an emission wavelength of 538 nm.
Solutions: • Wash Buffer: PBS 1 L+500 μl Tween 20 (final 0.05%) pH 7.2-7.4. • Blocking Buffer: 500 ml PBS+5 g BSA V (1%)+25 g Sucrose (5%)+0.25 g Sodium Azide (0.05%). • Reagent Diluent: 500 ml PBS+5 g BSA V (1%) pH 7.2-7.4 and filter sterilize through 0.2 μm. • Stop Solution: 2N sulfuric acid.
Duo Set Preparations: • 1. The IL-1β capture antibody was reconstituted in 1 ml of PBS to give a final concentration of 720 μg/ml, and the working concentration was 4 μg/ml. For coating one 96-well plate (at 100 μl/well) 56 μl of the 720 μg/ml stock was diluted into 10 ml of PBS. • 2. The IL-1β standards were reconstituted in 0.5 ml of Reagent Diluent (70 ng/ml). For a high standard of 1 ng/ml (2 wells at 100 μl each+enough for series dilution) 7.1 μl of the 70 ng/ml standard were diluted into 0.5 ml of Reagent Diluent • 3. The IL-1β detection antibody was reconstituted in 1 ml of Reagent Diluent to give a final concentration of 18 μg/ml and the working concentration is 100 ng/ml. For one 96-well plate (at 100 μl/well) 56 μl of the 18 μg/ml stock was diluted into 10 ml of Reagent Diluent.
• The Costar EIA Hi-binding plate was coated with capture antibody at 4 μg/ml. Each well was coated with 100 μl, and the plate was sealed and incubated overnight at room temperature. • Each well was aspirated and washed 3× with Wash Buffer. Each well was filled to the top, dispensed, and any remaining buffer was removed by inverting the plate and gently blotting against clean paper towels. • Non-specific binding sites were blocked by adding 300 μl of Blocking Buffer to each well, and after sealing incubating for at least 1 hour at room temperature. • After washing the plate was now ready for the samples. Assay Procedure: • 100 μl of either standard or sample were added in each well of the capture-coated and pre-blocked plate. The plate was sealed and incubated for 2 hours at room temperature, followed with washing. • 100 μl of the detection antibody (10 ng/ml) were added to each well. […]

[4] = system: dopaminergic neuronal cell line; assay: High glutamate-induced oxidative stress assay (HGOS); assay type: cell-based; details: Mus musculus; 30 mM glutamate, 16 hrs; read-out: EC50, protection against HGOS cell injury and cell death
Summary of the method: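 Mouse dopaminergic cells (passage ≤ p11) were grown 72 h at 33 °C, washed in HBSS, then exposed 16 h at 37 °C to compounds in DMEM-No Glu with 1 mM glucose and 30 mM glutamate. Surviving cells were stained 30 min with 5 μM Cell Tracker Green and fluorescence read at 485/538 nm.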

[5] = L-DOPA given 1 hour prior to the pole test, mean±std dev

| SMILES | EC50 [3] | effect on the functional deficit produced by MPTP [1] | also measured |
| --- | --- | --- | --- |
| COC(=O)CCC1(C)CCc2cc(O)c3c(c2O1)C1CCC3C1 (stereo not shown) [3-(6-Hydroxy-2-methyl-3,4,7,8,9,10-hexahydro-7,10-methano-2H-benzo[h]chromen-2-yl)-propionic Acid Methyl Ester] | – | significantly reduced the functional deficit produced by MPTP | IC50 [2]: ≤ 5 µM |
| CC1(CCC(=O)O)CCc2cc(O)c3c(c2O1)C1CCC3C1 (stereo not shown) [3-(6-Hydroxy-2-methyl-3,4,7,8,9,10-hexahydro-7,10-methano-2H-benzo[h]chromen-2-yl)-propionic Acid] | – | significantly reduced the functional deficit produced by MPTP | – |
| CC1(CCC(=O)O)CCc2cc(O)c3c(c2O1)C1CCCC3CC1 (stereo not shown) [3-(6-Hydroxy-2-methyl-3,4,7,8,9,10-hexahydro-7,10-propano-2H-benzo[h]chromen-2-yl)-propionic Acid] | ≤ 20 µM | – | – |
| N[C@@H](Cc1ccc(O)c(O)c1)C(=O)O [L-DOPA] | – | – | pole test, percent baseline, Day 1 [1, 5]: 110 ± 13.2 percent baseline; pole test, percent baseline, Day 2 [1, 5]: 97.9 ± 20.0 percent baseline; pole test, percent baseline, Day 3 [1, 5]: 100.1 ± 14.8 percent baseline |

Second part, led by results:

| EC50 [3] | SMILES | effect on the functional deficit produced by MPTP [1] | also measured |
| --- | --- | --- | --- |
| ≤ 20 µM | CC(C)=CCc1c(O)c2c(c3c1CCC(C)(CCC(=O)O)O3)C1CCC2C1 (stereo not shown) [3-[6-hydroxy-2-methyl-5-(3-methyl-but-2-enyl)-3,4,7,8,9,10-hexahydro-7,10-methano-2H-benzo[h]chromen-2-yl]-propionic acid] | – | – |
| ≤ 20 µM | CC(=O)Oc1c(CC=C(C)C)c2c(c3c1C1CCC3C1)OC(C)(C)CC2 (stereo not shown) [Acetic acid 2,2-dimethyl-5-(3-methyl-but-2-enyl)-3,4,7,8,9,10-hexahydro-7,10-methano-2H-benzo[h]chromen-6-yl ester] | – | EC50 [4]: ≤ 1 µM |
